# “And” between values parts separate entries of the source, which are not always exact repeats. Equal entries are not always repeated.
# Legend:
# Type in all cases: in vivo
# Sorghum seeds (RT X 437) = test: Sorghum seed germination; settings: 12 wt. % hydroxytyrosol solution, room temperature, 14 days; water control 36% (FIG. 2C), 29% (repeat, FIG. 2D)
# Procedure: Sorghum seeds (RT X 437) were incubated at room temperature in a solution including 12 wt. % hydroxytyrosol for 14 days. As a control, sorghum seeds (RT X 437) were incubated at room temperature in water for 14 days.
# [1] = system: Corn seeds (field hybrid 7571); test: Corn seed germination; settings: 12 wt. % hydroxytyrosol solution, room temperature, 14 days; water control 27% (FIG. 1C), 33% (repeat, FIG. 1D)
# Procedure: Corn seeds (field hybrid 7571) were incubated at room temperature in a solution including 12 wt. % hydroxytyrosol for 14 days. As a control, corn seeds (field hybrid 7571) were incubated at room temperature in water for 14 days.
# [2] = system: Rice seeds (Japanese cultivar, Taipei 309); test: Rice seed germination; settings: 12 wt. % hydroxytyrosol solution, 37° C., 14 days; water control 56%
# Procedure: Rice seeds (Japanese cultivar, Taipei 309) were incubated at 37° C. in a solution including 12 wt. % hydroxytyrosol for 14 days. As a control, rice seeds (Japanese cultivar, Taipei 309) were incubated at 37° C. in water for 14 days.
# HSP70 = test: Fold change in protein expression (SDS-PAGE, Western blotting, densitometry); settings: 12% hydroxytyrosol, vs water control, FIG. 6
# Procedure: (§1) The effect of different hydroxytyrosol concentrations on crop stress resistance and protein production was examined. […] Protein quantification was conducted using SDS-PAGE and Western blotting for visualization, followed by densitometry analysis to measure fold increases in protein expression. Additionally, HPLC-DAD and mass spectrometry were utilized to confirm hydroxytyrosol stability and retention in plant tissue.
# [3] = system: low molecular weight proteins (sHSPs, LTPs, pathogenesis-related proteins, and LEA proteins); test: as above; settings: 12% hydroxytyrosol, vs water control, FIG. 6
# Procedure: as §1
# Rubisco = test: as above; settings: 12% hydroxytyrosol, vs water control, FIG. 6
# Procedure: as §1
# other HSPs = test: as above; settings: 12% hydroxytyrosol, vs water control, FIG. 6
# Procedure: as §1
# Rice plants = test: Rice growth rate (column length); settings: 12 wt. % hydroxytyrosol
# Procedure: Rice plants were treated with 12 wt. % hydroxytyrosol over 28 days. As a control, rice plants were treated with water over 28 days. FIG. 4 depicts a line chart showing the column length of rice plants over 28 days. Table 1 provides the column length of rice plants treated with 12 wt. % hydroxytyrosol and water after 1, 14, and 28 days.
smiles,measurement,setting,value
OCCc1ccc(O)c(O)c1 [hydroxytyrosol],sorghum seeds germinated,Sorghum seeds (RT X 437),78% and 77%
same,corn seeds germinated,[1],75% and 69%
same,rice seeds germinated,[2],74%
same,increase in HSP70 (fold change in protein expression),HSP70,2.99 ×
same,increase in low molecular weight proteins (fold change in protein expression),[3],4.09 ×
same,increase in Rubisco (fold change in protein expression),Rubisco,1.72 ×
same,increase in other HSPs (fold change in protein expression),other HSPs,3.10 ×
same,column length of rice plants,"Rice plants; 1 day of treatment, water control 22 cm",35 cm
same,column length of rice plants,"Rice plants; 14 days of treatment, water control 39 cm",82 cm
same,column length of rice plants,"Rice plants; 28 days of treatment, water control 60 cm",112 cm
